Assay results reported in patent publication US20080234236A1, “REDUCTION OF ADVERSE EVENTS AFTER PERCUTANEOUS INTERVENTION BY USE OF A THROMBIN RECEPTOR ANTAGONIST” (priority 2007, published 2008).
“Also recorded” adds a separate entry of the source.

Experiments:
[1] = system: platelets; assay: Platelet activation (expression of P-selectin or CD40 ligand); set-up: species or system humans; details: in vivo
[2] = in vivo
Text: The Phase 2 study was a randomized, double-blind, placebo-controlled, multicenter, dose-escalation study in men and women with symptoms of coronary heart disease undergoing nonurgent PCI.

[3] = monkey, in vivo
[4] = Monkey bleeding liability study: forearm template bleeding time; type: in vivo, cynomolgus monkeys; details: for Template bleeding time: anesthetized monkeys, single oral dose (SCH 530348 1 mg/kg, ASA 10 mg/kg, clopidogrel 2 mg/kg), mean ± SEM
Procedure: Any novel antiplatelet agent should optimally avoid incremental bleeding risk relative to the current standard of care. The bleeding risk of SCH 530348 was evaluated in anesthetized cynomoigus monkeys in which SCH 530348 was administered alone and along with aspirin and clopidogrel. Bleeding assessment was conducted following administration of single doses of SCH 530348 (1 mg/kg) and/or aspirin (10 mg/kg, ASA) and clopidogrel (2 mg/kg). Four groups of monkeys were dosed orally with either vehicle (the medium used to dissolve the drug, 0.4% methylcellulose) or drug (n=5-6/group): Group I: vehicle, Group II: SCH 530348 (1 mg/kg), Group III ASA (10 mg/kg) plus clopidogrel (2 mg/kg) and Group IV: combination of SCH 530348, ASA plus clopidogrel. Doses of various drugs used inhibited their respective platelet pathways by >90% as assessed by ex-vivo platelet aggregation in whole blood. Two hours after dosing, animals were anesthetized and bleeding risk was assessed by forearm template bleeding time and surgical blood loss from a femoral incision site.
Template bleeding time was assessed as follows. The forearm of the monkey was shaved of hair and a precision cut (5 mm long and 1 mm deep) was made on the skin with a Simplate® bleeding device (Organon Tehnika), The duration of bleeding by blotting blood onto a filter paper at the incision site was determined. When blood was no longer absorbed onto the filter paper, bleeding was considered “stopped.” The time from initiation of the cut to when bleeding stopped is defined as the template bleeding time. In these studies bleeding time was assessed on two occasions at approximately 3.5 and 4 hrs after oral dosing with the drug.

[5] = Coagulation parameters; set-up: species or system humans; details: in vivo
Text: (§1) Similarly, there is no effect on arachidonic acid (“AA”) -induced platelet aggregation (see FIGS. 16 and 17) or collagen-induced platelet aggregation (see FIGS. 18-21).

[6] = Laboratory safety tests and ECGs at doses and durations studied to date; type: in vivo; details: doses and treatment duration studied to date
Text: Overall, the study drug was generally well-tolerated.

[7] = system: platelets; assay: ADP-induced platelet aggregation; type: in vivo, humans; details: loading and maintenance doses
Procedure: (§2) A pharmacodynamic substudy incorporating light aggregometry was performed under stringent physiologic conditions and read by a central core laboratory. […] The term “therpeutically effective amount of a thrombin receptor antagonist” will be understood to mean that quantity of the thrombin receptor antagonist sufficient to achieve at least 80% inhibition of TRAP mediated platelet aggregation.
as §1

[8] = Phase 2 study (P03573): bleeding in secondary cohort (medically treated); type: in vivo, humans
Text: The behavior of SCH 530348 in humans was further studied in a Phase 2 clinical development program. A key safety issue for SCH 530348 is the potential for incremental bleeding when added to standard of care with other oral antiplatelet therapies as well as parenteral antithrombotics. Therefore, a single Phase 2 study (P03573) was completed to evaluate the safety of SCH 530348 in patients at high risk of bleeding events, i.e., those patients undergoing non-emergent PCI (percutaneous coronary intervention). The goals of this Phase 2 study were to: • Evaluate the safety of SCH 530348 in addition to standard of care with respect to TIMI major and minor bleeding; and, • Observe the effects of SCH 530348 on major adverse cardiac events (“MACE”) in patients successfully completing an interventional procedure.
The primary endpoint (directed to evaluating safety) was the combined […] (“TIMI”) major and TIMI minor bleeding over sixty days in the primary evaluable cohort. Though the study was not powered to evaluate efficacy, a secondary endpoint (directed to evaluating efficacy) was the incidence of the composite of death and major adverse cardiac events (“MACE”) in the primary cohort. MACE includes myocardial infarction, urgent revascularization, and ischemia requiring hospitalization. Pharmacokinetics and pharmacodynamics were assessed at selected sites across the treatment groups. Other secondary endpoints included the incidence of TIMI major and minor bleeding in the secondary evaluable cohort i.e., those individuals who received the loading dose only.
The secondary cohort consisted of non-PCI patients who were treated medically (n=382) or underwent CABG (n=75). […] These included two vascular access site and one post-operative (surgical hip replacement) bleed.

[9] = system: platelets; assay: Pharmacodynamic substudy: TRAP induced platelet aggregation (light aggregometry); type: in vivo, humans; details: for Tested population achieving clinically relevant inhibition of platelet aggregation: thirty and sixty days; for Maximum inhibition of TRAP-induced platelet aggregation: 1-2 hours post dose
Procedure: as §2

[10] = system: dog Purkinje fibers; type: cell-based

## CCOC(=O)N[C@@H]1CC[C@@H]2[C@@H](C1)C[C@H]1C(=O)O[C@H](C)[C@H]1[C@H]2/C=C/c1ccc(-c2cccc(F)c2)cn1.O=S(=O)(O)O [SCH 530348, ethyl [(1R,3aR,4aR,6R,8aR,9S,9aS)-9-[(E)-2-[5-(3-fluorophenyl)-2-pyridinyl]ethenyl]-dodecahydro-1-methyl-3-oxonaphtho[2,3-c]furan-6-yl] carbamate bisulfate]
[1]
  Platelet activation (expression of P-selectin or CD40 ligand): without activating platelets
[2]
  Discontinuation of study drug for any adverse event, patients (%): 6%
  Patients completing the sixty day treatment period (%): 84%
[3]
  QT prolongation: no evidence of QT prolongation
[4]; SCH 530348 1 mg/kg alone or with aspirin and clopidogrel, 1 mg/kg
  Bleeding risk / prolongation of bleeding: no bleeding risk; also recorded: no prolongation of bleeding
[4]
  Template bleeding time: 4.9 min
[4]; listed as Group II
  Template bleeding time: 4.9 ± 0.99 min
[5]
  Affecting coagulation parameters: without
[6]
  Changes in laboratory safety tests or ECGs: no significant treatment-related changes or abnormalities
[7]
  Effect on ADP-induced platelet aggregation: no effect
[8]; 10 mg loading dose
  Any bleed, patients (%): 8%
  non-TIMI bleeding, patients (%): 8%
[8]; 20 mg loading dose
  Any bleed, patients (%): 12 (12%)
  TIMI Major/Minor bleeding, patients (%): 2 (2%)
  TIMI Minor bleeding, patients (%): 2 (2%)
  non-TIMI bleeding, patients (%): 11 (11%)
[8]; 40 mg loading dose
  Any bleed, patients (%): 10%
  TIMI Major/Minor bleeding, patients (%): 1 (1%)
  TIMI Minor bleeding, patients (%): 1 (1%)
  non-TIMI bleeding, patients (%): 10%
[8]; All SCH 530348
  Any bleed, patients (%): 10%
  TIMI Major/Minor bleeding, patients (%): 1%
  TIMI Minor bleeding, patients (%): 1%
  non-TIMI bleeding, patients (%): 10%
[9]; 1.0 mg/day maintenance
  Tested population achieving clinically relevant inhibition of platelet aggregation: 100%
[9]; 2.5 mg/day maintenance
  Tested population achieving clinically relevant inhibition of platelet aggregation: 100%
[9]; 20 mg
  Maximum inhibition of TRAP-induced platelet aggregation: > 80%
[9]; 40 mg loading dose
  Time to therapeutically effective levels (at least 80%) of platelet inhibition: in as little as one hour
[9]; 40 mg loading dose (only this dose)
  Tested population with clinically relevant platelet aggregation inhibition within 2 hours: more than 90%
[9]; 40 mg loading dose, 1 hour
  Patients with ≧80% inhibition of TRAP induced platelet aggregation: Approximately 68%
[9]; 40 mg loading dose, 1.5 hours
  Patients with ≧80% inhibition of TRAP induced platelet aggregation: ~82%
[9]; 40 mg loading dose, 2 hours
  Patients with ≧80% inhibition of TRAP induced platelet aggregation: ~96%
[9]; 40 mg
  Maximum inhibition of TRAP-induced platelet aggregation: > 80%
[9]; all three maintenance doses (0.5, 1.0, 2.5 mg)
  Inhibition of platelet aggregation at thirty and sixty days: clinically relevant inhibition of platelet aggregation
[9]; in vivo
  Inhibition of TRAP-induced platelet aggregation, dose dependency: dose-related inhibition
[9]; multiple doses of 1 mg/day
  Inhibition of TRAP-induced platelet aggregation: significantly inhibited
[9]; single doses as low as 5 mg
  Inhibition of TRAP-induced platelet aggregation: significantly inhibited
[10]
  QT prolongation based on action potential duration: no evidence of QT prolongation
